Experiments:
BRD2(1, 2) = BRD2(1, 2) (Homo sapiens (Human), UniProt P25440); experiment: AlphaScreen binding assay, BRD2 (D1+D2)
Procedure: (§1) Homogeneous time-resolved fluorescence (HTRF) was used to detect the binding of the compound to BRD4 (D1 +D2) and BRDT (D1) proteins, and the AlphaScreen method was used to detect the binding of the compound to BRD2 (D1+D2) and BRD3 (D1+D2) proteins.
(§2) Compounds were screened in vitro, and each concentration of the compound was diluted to 10 different concentrations. Four proteins, BRD4 (D1 +D2), BRDT (D1), BRD2 (D1+D2) and BRD3 (D1+D2), were selected to determine their IC50 values (see Table 1).
(§3) The test compound was dissolved in dimethylsulfoxide (DMSO) and stored at a concentration of 10 mM.
(§4) 6. AlphaScreen detection step:
(§5) 1) Preparing 1-fold concentration of detection buffer
(§6) 1-fold concentration of detection buffer was prepared (modified HEPES buffer).
(§7) 2) Gradient dilution of compounds
(§8) The compound was transferred to the detection plate with an Echo autosampler for gradient dilution, so that the final concentration of dimethyl sulfoxide was 0.1%.
(§9) 3) Preparation of protein solution
(§10) The protein was dissolved in a 1-fold concentration of detection buffer.
(§11) 4) Preparation of substrate solution
(§12) The peptide was dissolved in 1-fold concentration of detection buffer to prepare a substrate solution.
(§13) 5) 5 μL protein solution was transferred to the assay plate, and 5 μL 1-fold concentration of detection buffer was placed in the negative control well.
(§14) 6) The plate was incubated at room temperature for 15 minutes.
(§15) 7) 5 μL substrate solution was added to each well to start the reaction.
(§16) 8) The plate was incubated at room temperature for 60 minutes.
(§17) 9) Acceptor and donor solutions were prepared in 1-fold concentration of assay buffer.
(§18) 15 μL acceptor and donor solution were added, respectively, and the plate was incubated at room temperature for 60 minutes without light.
(§19) 10) The end point was read in EnSpire and Alpha mode.
(§20) 11) The curve was fitted.
(§21) The experimental data were entered into an Excel file, and the equation (1) was used to get the inhibitory rate. Inh %=(Max−Signal)/(Max−Min)*100 Equation (1)
(§22) The resultant data were entered into GraphPad software, and the IC50 value was obtained using equation (2). Y=Bottom+(Top−Bottom)/(1+10^((LogIC50−X)*Hill Slope)) Equation (2)
(§23) Wherein, Y-axis is the inhibition rate, while X-axis is the compound concentration.

BRDT(D1) = BRDT(D1) (Homo sapiens (Human), UniProt Q58F21); experiment: HTRF binding assay, BRDT (D1)
Procedure: as §1, §2
BRDT(D1)(Active Motif, Cat.No.31450)
as §3
5. Homogeneous Time-Resolved Fluorescence Detection Steps:
1) All compounds were gradiently diluted on Echo plate according to the arrangement of the test plate. The final concentration of DMSO was 0.1%.
2) Compounds or DMSO was transferred to a 384-well assay plate by using Echo autosampler.
3) 2× concentration of protein and peptide mixture was added to the assay plate.
4) 2× concentration of the mixed detection solution was added to the assay plate and shaken for 30 seconds.
5) The plate was incubated at room temperature for 2 hours.
6) The fluorescence signal was read on Envision microplate reader (with excitation light wavelength at 340 nm and emission light wavelength at 615 nm and 665 nm).
as §21, §22, §23

CWR22RV1 cells = experiment: Inhibition of CWR22RV1 cell proliferation (CCK-8); format: cell-based; details: Homo sapiens, CWR22Rv1, 144 h; cultured for 6 days, CCK-8; read-out: IC50 on CWR22RV1
Procedure: Test Example 2 Biological Determination of the Inhibitory Effect of the Compound on CWR22RV1 Cell Proliferation
Experimental Materials: • CWR22RV1 cell line (Cell bank of Chinese Academy of Sciences, TCHu100) • FBS (Gibco, Cat. No. 10099-141) • 0.01M PBS (Biosharp, Cat. No. 162262) • RIPM1640 (Hyclone, Cat. No. 308090.01) • Penicillin-Streptomycin (Hyclone, Cat. No. SV30010) • Cell counting kit-8(Signalway Antibody, Cat. No. CP002) • DMSO (Sigma, Cat. No. D5879) • Centrifuge Tube, 15 ml (Excell Bio, Cat. No. CS015-0001) • Cell Culture Dish, (Excell Bio, Cat. No. CS016-0128) • 96-well cell culture cluster (Corning, Cat. No. 3599)
(1) CWR22RV1 cells were subcultured with cell culture medium, and well-growth cells were inoculated in 96-well plates, with 80 μL per well. The number of cells in each well was 1500, and the plate was cultured overnight in a 37° C., 5% CO2 cell incubator.
(2) The drug was prepared as a 30 mM stock solution using dimethyl sulfoxide (DMSO). before use, the stock solution was diluted 3 times with DMSO, and then diluted by a 3 times gradient to obtain 9 concentration gradients. The compound at each concentration was further diluted 200 times with the culture solution (to ensure that the DMSO concentration in the culture system was 0.1%), and each concentration was repeated 2 wells. 20 μL of the diluted compound was added to the cell culture wells (with final concentrations of 10 μM, 3.3 μM, 1.1 μM . . . ), and gently shaked to mix. In addition, three negative control wells containing only cells and three blank control wells containing only culture medium (6 wells each containing 20 μL DMSO 200-fold diluted with culture medium) were set.
(1) After being cultured for 6 days, 10 μL CCK-8 was added to each well, and the cells were further cultured in a 5% CO2 cell incubator at 37° C. for 2.5 hours.
(2) The absorbance (OD value) was measured at 450 nm with a multifunctional microplate reader.
(3) The data were analyzed with the Dose-response-inhibition equation in the software GraphPad Prism6, and IC50 values were obtained.

BRD3(1, 2) = BRD3(1, 2) (Homo sapiens (Human), UniProt Q15059); experiment: AlphaScreen binding assay, BRD3 (D1+D2)
BRD3(1, 2), sequence (Q15059 29-417): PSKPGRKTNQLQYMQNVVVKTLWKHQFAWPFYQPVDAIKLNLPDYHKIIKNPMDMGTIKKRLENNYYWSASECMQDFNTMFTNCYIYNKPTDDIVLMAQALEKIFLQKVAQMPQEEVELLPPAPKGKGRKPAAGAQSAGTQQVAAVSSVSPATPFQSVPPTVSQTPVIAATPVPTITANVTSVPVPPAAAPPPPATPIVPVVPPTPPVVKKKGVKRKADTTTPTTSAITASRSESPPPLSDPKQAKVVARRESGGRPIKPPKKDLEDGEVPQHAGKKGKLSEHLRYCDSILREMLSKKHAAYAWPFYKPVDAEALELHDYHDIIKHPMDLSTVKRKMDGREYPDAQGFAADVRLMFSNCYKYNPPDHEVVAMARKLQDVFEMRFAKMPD
Procedure: as §1, §2, §3, §4, §5, §6, §7, §8, §9, §10, §11, §12, §13, §14, §15, §16, §17, §18, §19, §20, §21, §22, §23

BRD4(1, 2) = BRD4(1, 2) (Homo sapiens (Human), UniProt O60885); experiment: HTRF binding assay, BRD4 (D1+D2)
From the text: The experimental data were entered into an Excel file, and the equation (1) was used to get the inhibitory rate. Inh %=(Max−Signal)/(Max−Min)*100 Equation (1) […]

BRD2(1, 2), sequence (P25440 65-459): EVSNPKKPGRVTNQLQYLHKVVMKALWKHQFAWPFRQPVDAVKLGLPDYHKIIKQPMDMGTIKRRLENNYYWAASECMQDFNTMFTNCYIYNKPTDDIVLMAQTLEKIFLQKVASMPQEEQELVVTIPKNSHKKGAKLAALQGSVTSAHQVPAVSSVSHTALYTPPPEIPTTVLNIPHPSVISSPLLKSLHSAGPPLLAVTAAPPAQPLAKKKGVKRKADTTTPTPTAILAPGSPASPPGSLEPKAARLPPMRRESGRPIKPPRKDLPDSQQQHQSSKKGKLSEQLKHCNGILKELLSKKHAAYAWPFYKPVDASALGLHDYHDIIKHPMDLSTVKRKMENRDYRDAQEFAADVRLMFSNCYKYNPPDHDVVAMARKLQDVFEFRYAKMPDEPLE

## CCOCc1nnc(C[C@@H]2N=C(c3ccc(Cl)cc3)c3c(sc(C)c3C)-n3c(C)nnc32)o1 [Compound 6, (S)-2-((4-(4-chlorophenyl)-2,3,9-trimethyl-6H-thieno[3,2-f][1,2,4]triazolo[4,3-a][1,4]diaza-6-yl)methyl)-5-(ethoxylmethyl)-1,3,4-oxodiazole]
BRD2(1, 2)
  IC50: 15 nM
BRDT(D1)
  IC50: 46 nM
CWR22RV1 cells
  IC50: 61 nM
BRD3(1, 2)
  IC50: 20 nM

## Cc1sc2c(c1C)C(c1ccc(Cl)cc1)=N[C@@H](Cc1nnc(C3CC3)o1)c1nnc(C)n1-2 [Compound 20, (S)-2-((4-(4-chlorophenyl)-2,3,9-trimethyl-6H-thieno[3,2-f][1,2,4]triazolo[4,3-a][1,4]diaza-6-yl)methyl)-5-cyclopropyl-1,3,4-oxodiazole]
BRD2(1, 2)
  IC50: 10.1 nM
BRDT(D1)
  IC50: 49 nM
CWR22RV1 cells
  IC50: 37 nM
BRD3(1, 2)
  IC50: 20 nM

## Cc1sc2c(c1C)C(c1ccc(Cl)cc1)=N[C@@H](Cc1nnc(C(C)C)o1)c1nnc(C)n1-2 [Compound 19, (S)-2-((4-(4-chlorophenyl)-2,3,9-trimethyl-6H-thieno[3,2-f][1,2,4]triazolo[4,3-a][1,4]diaza-6-yl)methyl)-5-isopropyl-1,3,4-oxodiazole]
BRD2(1, 2)
  IC50: 8.3 nM
BRDT(D1)
  IC50: 51 nM
CWR22RV1 cells
  IC50: 28 nM
BRD3(1, 2)
  IC50: 17 nM

## CCc1nnc(C[C@@H]2N=C(c3ccc(Cl)cc3)c3c(sc(C)c3C)-n3c(C)nnc32)o1 [Compound 22, (S)-2-((4-(4-chlorophenyl)-2,3,9-trimethyl-6H-thieno[3,2-f][1,2,4]triazolo[4,3-a][1,4]diaza-6-yl)methyl)-5-ethyl-1,3,4-oxodiazole]
BRD2(1, 2)
  IC50: 10.8 nM
BRDT(D1)
  IC50: 46 nM
CWR22RV1 cells
  IC50: 47 nM
BRD4(1, 2)
  IC50: 25 nM
BRD3(1, 2)
  IC50: 21 nM
